Each structure is given as a SMILES string.

For assay [1], the system named is influenza A virus (A/PR/8/34). Description: microbe, parasite or virus in culture. The assay is classed as cell-based. As to conditions: Influenza A virus, PR/8, MDCK, 72 h, mean IC50 (mean all); MDCK cells, A/PR/8/34, 72 hours; read-out: Flu, MDCK IC50.
For assay [2], the system named is influenza A virus (A/PR/8/34) minus-strand viral RNA. The experiment in a line: microbe, parasite or virus in culture. Type of assay: cell-based. As to conditions: Influenza A virus, PR/8; mean EC50 (mean all); viral RNA by bDNA; read-out: bDNA EC50.

For `CC[C@]1(C(=O)O)CCCC[C@@H]1Nc1ncc(C#N)c(-c2c[nH]c3ncc(C(F)(F)F)cc23)n1` [Compound I-8, (1S,2S)-2-((5-cyano-4-(5-(trifluoromethyl)-1H-pyrrolo[2,3-b]pyridin-3-yl)pyrimidin-2-yl)amino)-1-ethylcyclohexanecarboxylic acid], in assay [1], the IC50 (as a rule, the concentration at which inhibition is half-maximal) was below 3.3 µM. Besides, in assay [2], the EC50 (usually the concentration at which the effect is half-maximal) was below 3.3 µM.
Turning to `COCC(=O)N[C@@H]1CCC[C@H](Nc2ncc(C#N)c(-c3c[nH]c4ncc(C(F)(F)F)cc34)n2)C1` [Compound I-9, N-((1R,3S)-3-((5-cyano-4-(5-(trifluoromethyl)-1H-pyrrolo[2,3-b]pyridin-3-yl)pyrimidin-2-yl)amino)cyclohexyl)-2-methoxyacetamide], the 50% inhibitory concentration (IC50) in assay [1] was below 3.3 µM. For the same compound, in assay [2], the half-maximal effective concentration (EC50) is below 3.3 µM.
With `N#Cc1cc(F)c(N[C@H]2CCC[C@@H](NC(=O)N3CCOCC3)C2)nc1-c1c[nH]c2ncc(Cl)cc12` [Compound I-11, N-((1R,3S)-3-((6-(5-chloro-1H-pyrrolo[2,3-b]pyridin-3-yl)-5-cyano-3-fluoro-pyridin-2-yl)amino)cyclohexyl)morpholine-4-carboxamide], the half-maximal inhibitory concentration (IC50) in assay [1] was below 3.3 µM. The EC50 in assay [2] was below 3.3 µM.
Take `N#Cc1cc(F)c(N[C@H]2CCC[C@@H](NC(=O)N3CCOCC3)C2)nc1-c1c[nH]c2ncc(F)cc12` [Compound I-12, N-((1R,3S)-3-((5-cyano-3-fluoro-6-(5-fluoro-1H-pyrrolo[2,3-b]pyridin-3-yl)pyridin-2-yl)amino)cyclohexyl)morpholine-4-carboxamide]: in assay [1], the IC50 was below 3.3 µM. For the same compound, the EC50 in assay [2] is below 3.3 µM.
`NC(=O)c1cc(F)c(N[C@H]2CCC[C@@H](NC(=O)N3CCOCC3)C2)nc1-c1c[nH]c2ncc(F)cc12` [Compound I-13, N-((1R,3S)-3-((5-carbamoyl-3-fluoro-6-(5-fluoro-1H-pyrrolo[2,3-b]pyridin-3-yl)pyridin-2-yl)amino)cyclohexyl)morpholine-4-carboxamide]: the IC50 in assay [1] is below 3.3 µM. In assay [2], the concentration giving a half-maximal response (EC50) was below 3.3 µM.
Regarding `N#Cc1cc(F)c(N[C@H]2CCC[C@@H](NC(=O)N3CC[C@@H](F)C3)C2)nc1-c1c[nH]c2ncc(F)cc12` [Compound I-14, (R)—N-((1R,3S)-3-((5-cyano-3-fluoro-6-(5-fluoro-1H-pyrrolo[2,3-b]pyridin-3-yl)pyridin-2-yl)amino)cyclohexyl)-3-fluoropyrrolidine-1-carboxamide], the half-inhibitory concentration (IC50) in assay [1] was below 3.3 µM. Also, in assay [2], the EC50 was below 3.3 µM.
In the case of `O=C(N[C@@H]1CCC[C@H](Nc2nc(-c3c[nH]c4ncc(F)cc34)c(F)cc2F)C1)N1CCCC1` [Compound I-15, N-((1R,3S)-3-((3,5-difluoro-6-(5-fluoro-1H-pyrrolo[2,3-b]pyridin-3-yl)pyridin-2-yl)amino)cyclohexyl)pyrrolidine-1-carboxamide], the concentration for half-maximal inhibition (IC50) in assay [1] is below 3.3 µM. Moreover, the 50% effective concentration (EC50) in assay [2] was below 3.3 µM.
Take `C[C@@H]1CCN(C(=O)N[C@@H]2CCC[C@H](Nc3nc(-c4c[nH]c5ncc(F)cc45)c(F)cc3F)C2)C1` [Compound I-16, (R)—N-((1R,3S)-3-((3,5-difluoro-6-(5-fluoro-1H-pyrrolo[2,3-b]pyridin-3-yl)-pyridin-2-yl)amino)cyclohexyl)-3-methylpyrrolidine-1-carboxamide]: the concentration for half-maximal inhibition (IC50) in assay [1] was below 3.3 µM. In addition, the concentration giving a half-maximal response (EC50) in assay [2] was below 3.3 µM.
In the case of `CN(C)C(=O)N[C@@H]1CCC[C@H](Nc2nc(-c3c[nH]c4ncc(F)cc34)c(F)cc2F)C1` [Compound I-17, 3-((1R,3S)-3-((3,5-difluoro-6-(5-fluoro-1H-pyrrolo[2,3-b]pyridin-3-yl)pyridin-2-yl)amino)cyclohexyl)-1,1-dimethylurea], the IC50 in assay [1] is below 3.3 µM. In addition, in assay [2], the EC50 is below 3.3 µM.
On to `Cn1cnc(C(=O)N[C@@H]2CCC[C@H](Nc3nc(-c4c[nH]c5ncc(F)cc45)c(F)cc3F)C2)c1` [Compound I-18, N-((1R,3S)-3-((3,5-difluoro-6-(5-fluoro-1H-pyrrolo[2,3-b]pyridin-3-yl)pyridin-2-yl)-amino)cyclohexyl)-1-methyl-1H-imidazole-4-carboxamide], for which, in assay [1], the 50% inhibitory concentration (IC50) is below 3.3 µM. Further, the EC50 in assay [2] is below 3.3 µM.
Regarding `O=C(N[C@@H]1CCC[C@H](Nc2nc(-c3c[nH]c4ncc(F)cc34)c(C(F)(F)F)cc2F)C1)N1CCCC1` [Compound I-19], the IC50 in assay [1] is below 3.3 µM. Besides, in assay [2], the EC50 is below 3.3 µM.
In the case of `O=C(N[C@H]1CCC[C@@H](Nc2nc(-c3c[nH]c4ncc(F)cc34)c(C(F)(F)F)cc2F)C1)N1CCOCC1` [Compound I-21], the IC50 in assay [1] is below 3.3 µM. Further, the EC50 in assay [2] is below 3.3 µM.
Regarding `O=C(N[C@@H]1CCC[C@H](Nc2nc(-c3c[nH]c4ncc(F)cc34)c(C(F)(F)F)cc2F)C1)N1CCOCC1` [Compound I-22, N-[(1R,3S)-3-[[3-fluoro-6-(5-fluoro-1H-pyrrolo[2,3-b]pyridin-3-yl)-5-(trifluoro-methyl)-2-pyridyl]amino]cyclohexyl]morpholine-4-carboxamide], in assay [1], the half-maximal inhibitory concentration (IC50) is below 3.3 µM. In addition, the 50% effective concentration (EC50) in assay [2] is below 3.3 µM.
Regarding `N#CC1(C(=O)N[C@@H]2CCC[C@H](Nc3nc(-c4c[nH]c5ncc(F)cc45)c(F)cc3F)C2)CC1` [Compound I-23], the concentration for half-maximal inhibition (IC50) in assay [1] is below 3.3 µM. Also, in assay [2], the EC50 was below 3.3 µM.
With `O=C(N[C@@H]1CCC[C@H](Nc2nc(-c3c[nH]c4ncc(F)cc34)c(F)cc2F)C1)N1CC[C@H](F)C1` [Compound I-24, (S)—N-((1R,3S)-3-((3,5-difluoro-6-(5-fluoro-1H-pyrrolo[2,3-b]pyridin-3-yl)pyridin-2-yl)-amino)cyclohexyl)-3-fluoropyrrolidine-1-carboxamide], in assay [1], the concentration for half-maximal inhibition (IC50) was below 3.3 µM. In assay [2], the EC50 was below 3.3 µM.
`O=C(N[C@@H]1CCC[C@H](Nc2nc(-c3c[nH]c4ncc(F)cc34)c(F)cc2F)C1)N1CCC(F)(F)C1` [Compound I-25, N-((1R,3S)-3-((3,5-difluoro-6-(5-fluoro-1H-pyrrolo[2,3-b]pyridin-3-yl)pyridin-2-yl)-amino)cyclohexyl)-3,3-difluoropyrrolidine-1-carboxamide]: the 50% inhibitory concentration (IC50) in assay [1] is below 3.3 µM. Besides, the EC50 in assay [2] is below 3.3 µM.
For the compound `O=C(O)[C@@H]1C2CCC(CC2)[C@H]1Nc1nc(-c2c[nH]c3ncc(F)cc23)c(F)cc1F` [Compound I-26], in assay [1], the IC50 was below 3.3 µM. In assay [2], the 50% effective concentration (EC50) is below 3.3 µM.
On to `COC(=O)[C@@H]1C2CCC(CC2)[C@H]1Nc1nc(-c2c[nH]c3ncc(Cl)cc23)c(F)cc1F` [Compound I-31], for which the IC50 in assay [1] was at least 3.3 µM. Also, in assay [2], the half-maximal effective concentration (EC50) was above 3.3 µM.
In the case of `O=C(O)[C@@H]1C2CCC(CC2)[C@H]1Nc1nc(-c2c[nH]c3ncc(Cl)cc23)c(F)cc1F` [Compound I-32], in assay [1], the 50% inhibitory concentration (IC50) was below 3.3 µM. For the same compound, in assay [2], the EC50 was below 3.3 µM.
With `COC(=O)[C@H]1C2CCC(CC2)[C@@H]1Nc1nc(-c2c[nH]c3ncc(Cl)cc23)c(F)cc1F` [Compound I-33, (2S,3S)-methyl 3-((6-(5-chloro-1H-pyrrolo[2,3-b]pyridin-3-yl)-3,5-difluoropyridin-2-yl)amino)bicyclo[2.2.2]octane-2-carboxylate], the half-maximal inhibitory concentration (IC50) in assay [1] was below 3.3 µM. The EC50 in assay [2] is below 3.3 µM.
Regarding `O=C(O)[C@H]1C2CCC(CC2)[C@@H]1Nc1nc(-c2c[nH]c3ncc(Cl)cc23)c(F)cc1F` [Compound I-34, (2S,3S)-3-((6-(5-chloro-1H-pyrrolo[2,3-b]pyridin-3-yl)-3,5-difluoropyridin-2-yl)amino)-bicyclo[2.2.2]octane-2-carboxylic acid], in assay [1], the IC50 was below 3.3 µM. Besides, the EC50 in assay [2] was below 3.3 µM.
In the case of `O=C(O)[C@H]1C2CCC(CC2)[C@@H]1Nc1cc(C(F)(F)F)cc(-c2c[nH]c3ncc(F)cc23)n1` [Compound I-40], the half-inhibitory concentration (IC50) in assay [1] was below 3.3 µM. In addition, the EC50 in assay [2] was below 3.3 µM.
As for `O=C(O)[C@@H]1C2CCC(CC2)[C@H]1Nc1cc(C(F)(F)F)cc(-c2c[nH]c3ncc(F)cc23)n1` [Compound I-41], the concentration for half-maximal inhibition (IC50) in assay [1] is below 3.3 µM. For the same compound, the EC50 in assay [2] was below 3.3 µM.
With `N#Cc1cc(F)c(N[C@H]2CCC[C@@H](NC(=O)N3CC[C@H](F)C3)C2)nc1-c1c[nH]c2ncc(F)cc12` [Compound I-43, (S)—N-((1R,3S)-3-((5-cyano-3-fluoro-6-(5-fluoro-1H-pyrrolo[2,3-b]pyridin-3-yl)pyridin-2-yl)amino)cyclohexyl)-3-fluoropyrrolidine-1-carboxamide], the IC50 in assay [1] is below 3.3 µM. For the same compound, the EC50 in assay [2] is below 3.3 µM.
Regarding `O=C(O)[C@@H]1C2CCC(CC2)[C@H]1Nc1cnnc(-c2c[nH]c3ncc(F)cc23)n1` [Compound I-45], in assay [1], the IC50 was at least 3.3 µM. Also, the EC50 in assay [2] is above 3.3 µM.
As for `O=C(O)[C@H]1C2CCC(CC2)[C@@H]1Nc1cnnc(-c2c[nH]c3ncc(F)cc23)n1` [Compound I-46], in assay [1], the 50% inhibitory concentration (IC50) was below 3.3 µM. In addition, in assay [2], the EC50 is below 3.3 µM.
Take `O=C(N[C@@H]1CCC[C@H](Nc2nc(-c3c[nH]c4ncc(F)cc34)c(F)cc2F)C1)c1ccsc1` [Compound I-47, N-((1R,3S)-3-((3,5-difluoro-6-(5-fluoro-1H-pyrrolo[2,3-b]pyridin-3-yl)pyridin-2-yl)amino)cyclohexyl)thiophene-3-carboxamide]: in assay [1], the 50% inhibitory concentration (IC50) is below 3.3 µM. In addition, the EC50 in assay [2] was below 3.3 µM.
Turning to `O=C(N[C@@H]1CCC[C@H](Nc2nc(-c3c[nH]c4ncc(F)cc34)c(F)cc2F)C1)c1csc(Cl)c1` [Compound I-48, 5-chloro-N-((1R,3S)-3-((3,5-difluoro-6-(5-fluoro-1H-pyrrolo[2,3-b]pyridin-3-yl)pyridin-2-yl)amino)cyclohexyl)thiophene-3-carboxamide], in assay [1], the IC50 is below 3.3 µM. Besides, the EC50 in assay [2] is below 3.3 µM.

Values taken from patent publication US20130345218A1 (Vertex Pharmaceuticals Incorporated, priority 2010, published 2013).
